Results taken from patent publication US9453031B2, “Chemical entities” (Fundación Centro Nacional de Investigaciones Oncológicas …, priority 2013, dated 2016).

How the values were obtained:
ATR [1] = biological target: T1, ATR (Homo sapiens (Human), UniProt Q13535); experiment: Cellular ATR inhibition, western blot of CHK1(S345) phosphorylation in hydroxyurea treated cells; assay type: cell-based; settings: HT29 cells
Experimental: In addition to the selective system described above, Example compounds presented here were screened for their ability to inhibit intracellular ATR using a western blot assay to detect phosphorylation of the ATR substrate CHK1(S345) in hydroxyurea treated cells. HT29 cells are plated at 500,000 cells per well in 6-well plates in RPMI media (Sigma R6504) supplemented with 10% foetal bovine serum (Sigma F7524), Penicillin/Streptomycin solution diluted 1:100 (Gibco 15070-063), and fungizone (Gibco, 15290-018), and allowed to adhere overnight at 37° C. in 5% CO2. Compounds are then added to the cell media from a final concentration of 10 μM in 3-fold serial dilutions and the cells are incubated at 37° C. in 5% CO2. After 15 min, hydroxyurea (Sigma H8627) is added to a final concentration of 2.5 mM. After 30 min of treatment with hydroxyurea, the cells are washed in PBS, lysed adding 50 μl of in protein lysis buffer (50 mM Tris pH 7.5, 150 mM NaCl, 1% IGEPAL CO-630 (Sigma, Ref. 542334-100G-A), Phospho Stop (Roche, Ref. 04906837001) and Complete Mini EDTA free (Roche, Ref. 11836170001)). The protein content of the lysates was determined by the modified method of Bradford (Sigma, Ref. B6916). The proteins were resolved by SDS-PAGE and transferred to nitrocellulose membrane (VWR International Eurolab, Ref. 732-4007). The membranes were incubated overnight at 4° C. with antibodies specific for total CHK1 (Santa Cruz Biotechnology, sc-8404), phosphoserine-345 CHK1 (Cell Signaling Technology #2348) they were washed and then incubated with IRDye800 conjugated anti-mouse (Pierce/Cultek, 35521) and Alexa Fluor 680 goat anti-rabbit IgG secondary antibodies (Invitrogen, A21076). The bands were visualized and quantified using an Odyssey infrared imaging system (Li-Cor Biosciences). The percentage of phosphorylated CHK1 vs total CHK1 in cells treated with hydroxyurea was taken as hundred percent of phosphorylation. The percentage of CHK1 phosphorylation is finally plotted against concentration for each compound and EC50s for intracellular ATR inhibition are calculated using ActivityBase from IDBS.

ATM = ATM (Homo sapiens (Human), UniProt Q13315); experiment: Cellular ATM inhibition, pCHK2 Thr68 after UV mimetic 4NQO; assay type: cell-based; settings: HT-29, read-out: UV mimetic inhibition of CHK2P at 10 μM (%); 10 μM compound, 3 μM 4NQO, HT29 cells
Excerpt: (§1) ATM and ATR have distinct and overlapping responses to DNA damage. They must participate together and responses must be coordinated. Both pathways may be activated by ionizing radiation, and UV. As UV treatment is not practical for use in a high throughput cell assay, the UV mimetic 4NQO (Sigma) was chosen to activate the ATR and ATM DNA damage response pathway.
(§2) Chk1, a downstream protein kinase of ATR, has a key role in DNA damage checkpoint control, as well as Chk2 downstream of ATM. […] This assay measures a decrease in phosphorylation of Chk1 (Ser 345) and […] in HT29 colon adenocarcinoma cells following treatment with compound and the UV mimetic 4NQO. Compounds at 1 mM were created by diluting in 100% DMSO and then diluted 1:100 into assay media (RPMI, 10% FCS, 1% glutamine). Cells were plated in 6 well Costar plates at 5×10^5 cells per mL in 2 mL RPMI, 10% FCS, 1% glutamine and grown for 24 hrs. Following addition of compound the cells were incubated for 60 minutes. A final concentration of 3 μM 4NQO (prepared in 100% DMSO) was then added and the cells incubated for a further 60 mins. The cells are lysed and pChk1 Ser345 and pCHK2 Thr68 (Cell Signaling Technology, #2661) versus total CHK1 and CHK2 (Santa Cruz Biotechnology, se-5278) respectively has analysed by western blot as described above. The percentage of phosphorylated CHK1 versus total CHK1 or p-CHK2 versus total CHK2 in cells treated with 4NQO was taken as hundred percent of phosphorylation. The percentage of CHK1 or CHK2 phosphorylation is finally plotted against concentration for each compound and EC50s for intracellular ATR inhibition are calculated using ActivityBase from IDBS.

ATR [2] = biological target: T1, ATR; experiment: Cellular ATR inhibition, pChk1 Ser345 after UV mimetic 4NQO; assay type: cell-based; settings: HT-29, read-out: UV mimetic inhibition of CHK1P at 10 μM (%); 10 μM compound, 3 μM 4NQO, HT29 cells
Excerpt: as §1, §2

mTOR = mTOR (Homo sapiens (Human), UniProt P42345); experiment: mTOR activity assay (LanthaScreen); assay type: biochemical
Sequence of mTOR (P42345 1360-2549): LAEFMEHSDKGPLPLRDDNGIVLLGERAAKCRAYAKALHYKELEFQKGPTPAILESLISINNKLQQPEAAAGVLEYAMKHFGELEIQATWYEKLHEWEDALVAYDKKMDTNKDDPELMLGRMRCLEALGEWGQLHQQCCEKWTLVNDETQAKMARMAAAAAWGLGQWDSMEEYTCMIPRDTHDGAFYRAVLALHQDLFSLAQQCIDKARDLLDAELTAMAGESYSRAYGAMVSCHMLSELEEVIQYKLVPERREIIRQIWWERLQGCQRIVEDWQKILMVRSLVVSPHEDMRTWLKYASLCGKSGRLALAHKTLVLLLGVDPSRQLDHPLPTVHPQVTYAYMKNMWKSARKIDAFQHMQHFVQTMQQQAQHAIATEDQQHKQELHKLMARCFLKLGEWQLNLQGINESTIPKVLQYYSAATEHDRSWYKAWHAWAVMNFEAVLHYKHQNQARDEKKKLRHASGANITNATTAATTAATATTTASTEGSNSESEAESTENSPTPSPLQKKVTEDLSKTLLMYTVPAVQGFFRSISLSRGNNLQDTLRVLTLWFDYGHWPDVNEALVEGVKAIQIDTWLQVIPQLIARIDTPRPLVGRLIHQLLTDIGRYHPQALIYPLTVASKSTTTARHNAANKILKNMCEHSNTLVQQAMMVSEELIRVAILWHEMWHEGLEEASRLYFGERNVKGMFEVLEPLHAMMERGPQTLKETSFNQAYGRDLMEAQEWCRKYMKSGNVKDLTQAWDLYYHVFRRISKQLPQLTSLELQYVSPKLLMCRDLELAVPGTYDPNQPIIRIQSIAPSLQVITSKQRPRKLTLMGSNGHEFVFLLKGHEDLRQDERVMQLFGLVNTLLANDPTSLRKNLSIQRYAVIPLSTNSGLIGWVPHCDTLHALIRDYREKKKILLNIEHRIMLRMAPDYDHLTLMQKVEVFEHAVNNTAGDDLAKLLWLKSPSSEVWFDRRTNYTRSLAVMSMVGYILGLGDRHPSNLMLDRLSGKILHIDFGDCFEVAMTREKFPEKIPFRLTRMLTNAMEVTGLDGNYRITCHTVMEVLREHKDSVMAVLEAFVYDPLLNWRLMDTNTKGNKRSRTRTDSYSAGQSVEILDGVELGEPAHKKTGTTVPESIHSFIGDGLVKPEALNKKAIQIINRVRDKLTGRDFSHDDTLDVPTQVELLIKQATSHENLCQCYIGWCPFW
Experimental: The enzymatic mTOR activity was measured using a LanthaScreen™ kinase activity assay (Invitrogen). The enzyme was purchased from Invitrogen (PV4754), as well as the GFP-labelled substrate (4EBP1-GFP; PV4759) and the Tb-antip4EBP1(pThr46) antibody (PV4757). The assay was performed in 50 Mm HEPES buffer, pH 7.5, containing 1.5 mM MnCl2, 10 mM MgCl2, 1 mM EGTA, 2.5 mM DTT and 0.01% Tween-20. The concentration of the assay components were the following: 0.24 nM mTOR kinase, 400 nM 4EBP1-GFP, […] and serial dilutions of the compound (inhibitor) to be evaluated. After 1 h incubation at room temperature, 20 mM EDTA was used to stop the reaction and terbium-labelled antibody (4 nM) added to detect phosphorylated product. The antibody associates with the phosphorylated product resulting in an increased TR-FRET value. The TR-FRET value (a dimensionless number) was calculated as the ratio of the acceptor signal (GFP, emission at 520 nm) to the donor signal (terbium, emission at 495 nm).

DNA-PK = DNA-PK (Homo sapiens (Human), UniProt P78527); experiment: DNAPK activity assay (ADP Hunter Plus); assay type: biochemical; settings: 75 μM ATP
Experimental: The kinase activity was measured by using the commercial ADP Hunter™ Plus assay available from DiscoveRx (#90-0083), which is a homogeneous assay to measure the accumulation of ADP, a universal product of kinase activity. The enzyme, DNA-PK was purchased from Promega (#V5811). The assay was done following the manufacturer recommendations with slight modifications: Mainly the kinase buffer was replace by 15 mM HEPES, pH 7.5, 10 mM MgCl2, 20 mM NaCl, 1 mM EGTA, 0.1 mg/mL BGG, 0.02% Tween 20. The DNA-PK was assayed in a titration experiment to determine the optimal protein concentration for the inhibition assay. To calculate the […] of the Compounds, serial 1:3 dilutions of the compounds were added to the enzyme at a fixed concentration (2 U/μL). The enzyme was preincubated with the inhibitor and 200 μM DNA substrate and then ATP was added to a final 75 μM concentration. Reaction was carried out for 1 hour at 37° C. Reagent A and B were sequentially added to the wells and plates were incubated for 30 min at RT. Fluorescence counts were read in a EnVision instrument (Perkin Elmer) with the recommended settings (550 and 590 nm as excitation and emission wavelengths, respectively).

PI3K (p110α/p85α) = PI3K (p110α/p85α) (Homo sapiens (Human), UniProt P42336); experiment: PI3K alpha activity assay (ADP Hunter Plus); assay type: biochemical; settings: 50 μM ATP, 30 μM PIP2; read-out: PI3Kα IC50
Experimental: The kinase activity was measured by using the commercial ADP Hunter™ Plus assay available from DiscoveRx (#33-016), which is a homogeneous assay to measure the accumulation of ADP, a universal product of kinase activity. […] The reaction was carried out for 1 hour at 25° C. Reagent A and B were sequentially added to the wells and plates were incubated for 30 min at 37° C. Fluorescence counts were read in a Victor instrument (Perkin Elmer) with the recommended settings (544 and 580 nm as excitation and emission wavelengths, respectively).

T1 sequence (Q13535 whole entry): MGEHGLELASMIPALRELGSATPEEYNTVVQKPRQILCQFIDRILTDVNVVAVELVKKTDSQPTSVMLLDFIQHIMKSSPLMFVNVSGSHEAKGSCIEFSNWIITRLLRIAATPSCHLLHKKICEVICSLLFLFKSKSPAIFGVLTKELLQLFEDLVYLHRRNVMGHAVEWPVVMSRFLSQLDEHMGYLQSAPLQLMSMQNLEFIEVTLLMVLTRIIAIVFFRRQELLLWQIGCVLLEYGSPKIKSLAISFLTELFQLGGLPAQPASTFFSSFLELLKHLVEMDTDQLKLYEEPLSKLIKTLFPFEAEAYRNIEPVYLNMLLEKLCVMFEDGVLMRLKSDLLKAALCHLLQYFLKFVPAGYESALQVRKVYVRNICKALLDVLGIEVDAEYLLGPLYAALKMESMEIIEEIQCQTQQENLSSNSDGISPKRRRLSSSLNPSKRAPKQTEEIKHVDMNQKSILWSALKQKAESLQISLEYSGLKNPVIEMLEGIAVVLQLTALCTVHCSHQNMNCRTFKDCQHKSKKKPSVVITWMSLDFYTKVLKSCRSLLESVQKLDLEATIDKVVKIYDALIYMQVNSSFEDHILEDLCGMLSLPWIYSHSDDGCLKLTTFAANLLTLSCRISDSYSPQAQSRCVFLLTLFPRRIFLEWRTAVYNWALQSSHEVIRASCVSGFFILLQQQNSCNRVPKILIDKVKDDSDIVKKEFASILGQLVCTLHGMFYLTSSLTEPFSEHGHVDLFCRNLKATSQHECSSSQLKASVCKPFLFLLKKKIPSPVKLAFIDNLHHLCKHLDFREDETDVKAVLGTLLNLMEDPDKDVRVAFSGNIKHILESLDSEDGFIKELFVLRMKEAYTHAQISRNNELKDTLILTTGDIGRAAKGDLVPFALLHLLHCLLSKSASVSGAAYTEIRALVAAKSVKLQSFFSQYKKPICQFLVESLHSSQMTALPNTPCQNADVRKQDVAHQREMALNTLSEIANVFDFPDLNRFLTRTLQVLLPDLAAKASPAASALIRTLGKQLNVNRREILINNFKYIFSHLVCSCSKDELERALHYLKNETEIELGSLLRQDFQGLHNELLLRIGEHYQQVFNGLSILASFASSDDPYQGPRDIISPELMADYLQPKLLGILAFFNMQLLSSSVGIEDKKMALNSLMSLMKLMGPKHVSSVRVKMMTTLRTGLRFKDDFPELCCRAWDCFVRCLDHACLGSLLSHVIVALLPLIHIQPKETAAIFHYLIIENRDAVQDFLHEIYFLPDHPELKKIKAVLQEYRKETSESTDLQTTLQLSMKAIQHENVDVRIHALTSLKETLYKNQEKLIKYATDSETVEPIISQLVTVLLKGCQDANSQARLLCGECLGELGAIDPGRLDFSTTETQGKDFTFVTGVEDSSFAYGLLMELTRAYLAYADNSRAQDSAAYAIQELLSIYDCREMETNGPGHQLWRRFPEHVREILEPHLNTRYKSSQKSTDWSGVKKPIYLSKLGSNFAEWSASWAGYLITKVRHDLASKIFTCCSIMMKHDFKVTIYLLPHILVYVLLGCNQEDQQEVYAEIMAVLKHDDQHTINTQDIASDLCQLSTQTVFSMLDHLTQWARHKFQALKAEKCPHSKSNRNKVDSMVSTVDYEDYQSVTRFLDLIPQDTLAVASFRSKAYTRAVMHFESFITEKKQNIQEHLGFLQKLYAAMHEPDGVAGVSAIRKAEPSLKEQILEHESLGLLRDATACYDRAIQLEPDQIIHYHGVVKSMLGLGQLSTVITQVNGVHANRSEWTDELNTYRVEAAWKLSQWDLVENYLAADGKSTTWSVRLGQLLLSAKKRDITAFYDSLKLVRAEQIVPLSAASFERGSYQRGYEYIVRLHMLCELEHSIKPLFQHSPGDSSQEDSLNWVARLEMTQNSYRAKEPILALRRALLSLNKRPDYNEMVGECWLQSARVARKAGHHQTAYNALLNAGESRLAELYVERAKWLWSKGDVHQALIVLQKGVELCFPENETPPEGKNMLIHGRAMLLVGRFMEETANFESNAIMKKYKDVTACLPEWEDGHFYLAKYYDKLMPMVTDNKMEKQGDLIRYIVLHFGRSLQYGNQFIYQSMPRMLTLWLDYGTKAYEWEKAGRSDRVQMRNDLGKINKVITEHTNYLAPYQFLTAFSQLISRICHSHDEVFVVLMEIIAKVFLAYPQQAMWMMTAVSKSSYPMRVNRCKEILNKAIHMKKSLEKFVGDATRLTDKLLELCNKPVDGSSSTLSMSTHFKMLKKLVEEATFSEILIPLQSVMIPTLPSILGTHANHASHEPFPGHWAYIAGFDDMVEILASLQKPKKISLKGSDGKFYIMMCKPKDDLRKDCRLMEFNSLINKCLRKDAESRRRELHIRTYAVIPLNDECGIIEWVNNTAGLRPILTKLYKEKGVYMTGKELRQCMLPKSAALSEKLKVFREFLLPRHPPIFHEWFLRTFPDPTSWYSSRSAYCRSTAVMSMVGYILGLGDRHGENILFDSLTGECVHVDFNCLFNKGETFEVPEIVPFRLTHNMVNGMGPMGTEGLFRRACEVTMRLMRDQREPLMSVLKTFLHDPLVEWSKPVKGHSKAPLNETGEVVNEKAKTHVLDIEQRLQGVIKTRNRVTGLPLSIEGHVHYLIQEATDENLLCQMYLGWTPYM

| Structure (SMILES) | EC50 (ATR [1]; hydroxyurea 2.5 mM) | inhibition at 10 µM (ATM) | inhibition at 10 µM (ATR [2]) | IC50 (mTOR) | IC50 (DNA-PK) | IC50 (PI3K (p110α/p85α)) | EC50 (ATR [1]; hydroxyurea […]) |
| --- | --- | --- | --- | --- | --- | --- | --- |
| CS(=O)(=O)C1(c2nc(-c3cccc4[nH]ccc34)nc3c2OCC2COCCN32)CCOCC1 (stereo not drawn) [Example 2] | < 100 nM | 0% | 98% |  |  |  |  |
| C[C@@H]1CN(CC(=O)Nc2ccc3c(c2)Cc2cccc(-c4cc(=O)cc(N5CCOCC5)o4)c2S3)C[C@H](C)O1 [ATM inhibitor KU-60019, reference compound] |  | 99% | 38% |  |  |  |  |
| CNc1nc2ccccc2n1-c1nc2c(c(C(C)(C)S(C)(=O)=O)n1)OCC1COCCN21 (stereo not drawn) [Example 8] | < 100 nM | 25% | 98% |  |  |  |  |
| CS(=O)(=O)C1(c2nc(-c3cccc4[nH]ccc34)nc3c2OC[C@H]2COCCN32)CCOCC1 [Example 10] | 100 to 1000 nM | 25% | 95% |  |  |  |  |
| CS(=O)(=O)C1(c2nc(-c3cc(C(F)(F)F)cc4[nH]ccc34)nc3c2OC[C@@H]2COCCN32)CCOCC1 [Example 105] | 100 to 1000 nM |  |  | 1990 nM | 10000 nM | 28900 nM |  |
| CC(C)(c1nc(-n2c(N)nc3ccccc32)nc2c1OC[C@@H]1COCCN21)S(C)(=O)=O [Example 70] |  |  |  | 226 nM | 741 nM | 870 nM | 100 to 1000 nM |
| COc1cc(-c2nc3c(c(C(C)(C)O)n2)OC[C@@H]2COCCN32)c2cc[nH]c2c1 [Example 46] | 100 to 1000 nM |  |  | 38 nM | 2820 nM | 480 nM |  |
| Cc1cc2c(-c3nc4c(c(C5(S(C)(=O)=O)CC5)n3)OC[C@@H]3COCCN43)cccc2[nH]1 [Example 109] | 100 to 1000 nM |  |  | 224 nM | 10000 nM | 5690 nM |  |
| Cc1cc2c(-c3nc4c(c(C(C)(C)S(C)(=O)=O)n3)OC[C@@H]3COCCN43)cccc2[nH]1 [Example 103] | 100 to 1000 nM |  |  | 58 nM | 10000 nM | 3160 nM |  |
| CS(=O)(=O)C1(c2nc(-c3cc(F)cc4[nH]ccc34)nc3c2OC[C@@H]2COCCN32)CCOCC1 [Example 28] | < 100 nM |  |  | 785 nM | 25000 nM | 4700 nM |  |
| CC(C)(c1nc(-c2c(F)ccc3[nH]ccc23)nc2c1OC[C@H]1COCCN21)S(C)(=O)=O [Example 26] | > 1000 nM |  |  | 10000 nM | 10000 nM | 2700 nM |  |
